Measurements from patent US11744824B2, “2-amino-3-carbonyl imidazopyridine and pyrazolopyridine compounds” (1ST Biotherapeutics, Inc., priority 2020, dated 2023).
pIC50: −log10 of the molar value.

Biological target: GST-tagged recombinant human RIP2 (Homo sapiens (Human), UniProt O43353)
Experiment: RIP2 Kinase Assay (ADP-Glo)
Format: biochemical
Settings: in vitro kinase activity, ATP 25 μM
Protocol: GST-tagged recombinant human RIP2 (25 ng) is incubated with 5 μL of compounds (0.5% DMSO), 5 μL of MBP (0.5 μg/μl) and 5 μL of ATP (25 μM) in buffer (40 mM Tris, 7.5; 20 mM MgCl2; 0.1 mg/ml BSA; 50 μM DTT). The assay was started by incubating the reaction mixture in a 96-well plate at 30° C. for 60 minutes. After the incubation, 25 μL ADP-Glo reagent was added, and the reaction was incubated at 30° C. for 40 minutes to stop the reaction and degrade residual ATP. The ADP product was then converted to ATP by adding 50 μL per well of detection reagent. Luminescence was detected after 30 minutes room temperature incubation with the Molecular device I3X plate reader. The IC50 values were calculated from a series of percent inhibition values determined at a range of inhibitor concentration using software routines as implemented in the GraphPad Prism 7 software and SigmaPlot 13.0.

Chain of GST-tagged recombinant human RIP2 (O43353 whole entry): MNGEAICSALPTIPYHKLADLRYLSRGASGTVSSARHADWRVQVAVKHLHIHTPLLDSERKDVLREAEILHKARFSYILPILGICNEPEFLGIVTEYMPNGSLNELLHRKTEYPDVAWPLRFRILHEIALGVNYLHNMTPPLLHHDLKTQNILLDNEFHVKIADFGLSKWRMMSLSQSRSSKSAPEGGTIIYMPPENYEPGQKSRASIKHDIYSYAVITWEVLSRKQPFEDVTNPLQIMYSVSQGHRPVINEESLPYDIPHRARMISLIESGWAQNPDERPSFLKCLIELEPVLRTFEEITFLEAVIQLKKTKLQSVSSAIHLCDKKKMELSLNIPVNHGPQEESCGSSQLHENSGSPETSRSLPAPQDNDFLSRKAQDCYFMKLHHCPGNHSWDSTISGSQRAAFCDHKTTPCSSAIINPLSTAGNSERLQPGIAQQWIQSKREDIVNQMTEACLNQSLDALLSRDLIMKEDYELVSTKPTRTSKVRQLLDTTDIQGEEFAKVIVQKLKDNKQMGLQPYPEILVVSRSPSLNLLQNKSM

pIC50	Structure (SMILES)
7.00 to 9.00	C=Cc1c(F)cccc1-c1ccc2nc(N)c(C(=O)[C@@H]3C[C@@H]3F)n2c1 [Example 145]
7.00 to 9.00	Nc1nc2ccc(-c3ccc4[nH]ccc4c3)cn2c1C(=O)[C@H]1C[C@@H]1F [Example 157]
6.30 to 7.00	Nc1nc2ccc(-c3ccccc3CCCO)cn2c1C(=O)[C@@H]1C[C@@H]1F [Example 129]
< 6.00	CSc1c(F)c(Cl)c(-c2ccc3nc(N)c(C(=O)O[C@@H]4COC[C@H]4C)n3c2)c2cn[nH]c12 [Example 151, (3S,4R)-4-methyltetrahydrofuran-3-yl 2-amino-6-(5-chloro-6-fluoro-7-(methylthio)-1H-indazol-4-yl)imidazo[1,2-a]pyridine-3-carboxylate]
7.00 to 9.00	Cc1ccccc1-c1ccc2nc(N)c(C(=O)[C@@H]3C[C@@H]3F)n2c1 [Example 118]
6.30 to 7.00	Cc1c(F)cccc1-c1ccc2nc(N)c(C(=O)N[C@@H]3C[C@@H]3F)n2c1 [Example 108]
< 6.00	Cc1c(F)cccc1-c1ccc2nc(NC(=O)OC(C)(C)C)c(C(=O)[C@@H]3C[C@@H]3F)n2c1 [Example 70, tert-butyl (6-(3-fluoro-2-methylphenyl)-3-((1S,2S)-2-fluorocyclopropane-1-carbonyl)imidazo[1,2-a]pyridin-2-yl)carbamate]
6.30 to 7.00	Cc1c(F)cccc1Nc1ccc2nc(N)c(C(=O)[C@@H]3C[C@@H]3F)n2c1 [Example 148, (2-amino-6-((3-fluoro-2-methylphenyl)amino)imidazo[1,2-a]pyridin-3-yl)((1S,2S)-2-fluorocyclopropyl)methanone]
6.30 to 7.00	CN1CCN(c2cccc(-c3ccc4nc(N)c(C(=O)[C@@H]5C[C@@H]5F)n4c3)c2)CC1 [Example 56]
< 6.00	CC(=O)c1c(N(C(C)=O)C(C)=O)nc2ccc(-c3cccc(F)c3C)cn12 [Example 37, N-acetyl-N-(3-acetyl-6-(3-fluoro-2-methylphenyl)imidazo[1,2-a]pyridin-2-yl)acetamide]
6.30 to 7.00	Nc1nc2ccc(-c3cccc(F)c3CCCO)cn2c1C(=O)[C@@H]1C[C@@H]1F [Example 123]
< 6.00	Cc1c(F)cccc1-c1ccc2nc(N)c(C(=O)N(C)C3CC3)n2c1 [Example 107, 2-amino-N-cyclopropyl-6-(3-fluoro-2-methylphenyl)-N-methylimidazo[1,2-a]pyridine-3-carboxamide]
6.30 to 7.00	CO/C=C/c1c(F)cccc1-c1ccc2nc(N)c(C(=O)[C@@H]3C[C@@H]3F)n2c1 [Example 144]
6.30 to 7.00	Nc1nc2ccc(-c3ccccc3CCO)cn2c1C(=O)[C@@H]1C[C@@H]1F [Example 128]
< 6.00	NCc1ccccc1-c1ccc2nc(N)c(C(=O)[C@@H]3C[C@@H]3F)n2c1 [Example 138]
6.30 to 7.00	CSc1c(F)c(C)c(-c2ccc3nc(N)c(C(=O)[C@@H]4C[C@@H]4F)n3c2)c2cn[nH]c12 [Example 62]
7.00 to 9.00	Nc1nc2ccc(-c3ccc4cc[nH]c4c3)cn2c1C(=O)[C@@H]1C[C@@H]1F [Example 58]
7.00 to 9.00	Cc1c(-c2ccc3nc(N)c(C(=O)[C@H]4C[C@@H]4F)n3c2)ccc2[nH]ccc12 [Example 161]
6.30 to 7.00	Cc1c(-c2ccc3nc(N)c(C(=O)[C@@H]4C[C@@H]4F)n3c2)ccc(F)c1F [Example 31]
< 6.00	CC(=O)Nc1nc2ccc(-c3cccc(F)c3C)cn2c1C(C)=O [Example 33, N-(3-acetyl-6-(3-fluoro-2-methylphenyl)imidazo[1,2-a]pyridin-2-yl)acetamide]
< 6.00	CC(=O)c1ccc(-c2ccc3nc(N)c(C(=O)[C@@H]4C[C@@H]4F)n3c2)c(C)c1 [Example 38]

pIC50	Structure (SMILES)
6.30 to 7.00	Nc1nc2ccc(-c3cccs3)cn2c1C(=O)[C@@H]1C[C@@H]1F [Example 8]
7.00 to 9.00	Nc1nc2ccc(-c3ccc4[nH]ccc4c3)cn2c1C(=O)[C@H]1C[C@H]1F [Example 156]
6.00 to 6.30	CCCCC(=O)c1c(N)nc2ccc(-c3cccc(F)c3C)cn12 [Example 23]
< 6.00	Cc1c(F)cccc1-c1ccc2nc(N)c(C(=O)C3CN(C(=O)OC(C)(C)C)C3)n2c1 [Example 49]
6.30 to 7.00	Cc1c(-c2ccc3nc(N)c(C(=O)[C@@H]4C[C@@H]4F)n3c2)cc(F)cc1N(C)C [Example 147]
6.30 to 7.00	Cc1c(F)cccc1-c1ccc2nc(N)c(C(=O)[C@H]3C[C@H]3F)n2c1 [Example 35]
6.30 to 7.00	Cc1ccc(C)c(-c2ccc3nc(N)c(C(=O)[C@@H]4C[C@@H]4F)n3c2)c1 [Example 16]
6.30 to 7.00	Nc1nc2ccc(-c3ccccc3Cl)cn2c1C(=O)[C@@H]1C[C@@H]1F [Example 34]
6.30 to 7.00	Cc1ccncc1-c1ccc2nc(N)c(C(=O)C3CC3)n2c1 [Example 2]
< 6.00	Nc1nc2ccc(-c3cccc(F)c3CO)cn2c1C(=O)[C@@H]1C[C@@H]1F [Example 127]
7.00 to 9.00	Cc1c(N)cc(F)cc1-c1ccc2nc(N)c(C(=O)[C@@H]3C[C@@H]3F)n2c1 [Example 133]
6.30 to 7.00	Cc1c(-c2ccc3nc(N)c(C(=O)[C@@H]4C[C@@H]4F)n3c2)ccc2[nH]cnc12 [Example 103]
< 6.00	CC(C)(C)OC(=O)n1cc(-c2ccc3nc(N)c(C(=O)[C@@H]4C[C@@H]4F)n3c2)c2ccccc21 [Example 98]
6.30 to 7.00	Cc1c(F)cccc1Oc1ccc2nc(N)c(C(=O)[C@@H]3C[C@@H]3F)n2c1 [Example 160]
7.00 to 9.00	Cc1c(-c2ccc3nc(N)c(C(=O)[C@H]4C[C@H]4F)n3c2)ccc2[nH]ccc12 [Example 159]
< 6.00	Cc1c(F)cccc1-c1ccc2nc(N(C)C)c(C(=O)[C@H]3C[C@@H]3F)n2c1 [Example 55, (2-(dimethylamino)-6-(3-fluoro-2-methylphenyl)imidazo[1,2-a]pyridin-3-yl)((1R,2S)-2-fluorocyclopropyl)methanone]
< 6.00	CNCCNc1nc2ccc(-c3cccc(F)c3C)cn2c1C(=O)[C@@H]1C[C@@H]1F [Example 87, (6-(3-fluoro-2-methylphenyl)-2-((2-(methylamino)ethyl)amino)imidazo[1,2-a]pyridin-3-yl)((1S,2S)-2-fluorocyclopropyl)methanone]
< 6.00	Nc1nc2ccc(Br)cn2c1C(=O)C1CC1 [Example 1, (2-amino-6-bromoimidazo[1,2-a]pyridin-3-yl)(cyclopropyl)methanone]
6.30 to 7.00	Nc1nc2ccc(-c3ccccc3CCCF)cn2c1C(=O)[C@@H]1C[C@@H]1F [Example 132]
< 6.00	Nc1nc2ccc(-c3cccc(F)c3CCO)cn2c1C(=O)[C@@H]1C[C@@H]1F [Example 126]
< 6.00	Nc1nc2ccc(-c3cc[nH]c3)cn2c1C(=O)[C@@H]1C[C@@H]1F [Example 125]

pIC50	Structure (SMILES)
6.30 to 7.00	Nc1nc2c(F)cc(-c3ccc4[nH]ccc4c3)cn2c1C(=O)[C@@H]1C[C@@H]1F [Example 92]
6.30 to 7.00	Nc1nc2ccc(-c3cnc4ccccc4c3)cn2c1C(=O)[C@@H]1C[C@@H]1F [Example 116]
7.00 to 9.00	Cc1ccc(F)cc1-c1ccc2nc(N)c(C(=O)[C@@H]3C[C@@H]3F)n2c1 [Example 15]
< 6.00	CC(C)(C)OC(=O)n1cccc1-c1ccc2nc(N)c(C(=O)[C@@H]3C[C@@H]3F)n2c1 [Example 121]
6.00 to 6.30	Nc1nc2ccc(-c3ccc(N4CCNCC4)cc3)cn2c1C(=O)[C@@H]1C[C@@H]1F [Example 52]
< 6.00	Cc1cccc(N)c1-c1ccc2nc(N)c(C(=O)[C@@H]3C[C@@H]3F)n2c1 [Example 143]
< 6.00	Nc1nc2ccc(-c3ccco3)cn2c1C(=O)[C@@H]1C[C@@H]1F [Example 27]
7.00 to 9.00	Cc1cccc(-c2ccc3nc(N)c(C(=O)[C@@H]4C[C@@H]4F)n3c2)c1C [Example 11]
7.00 to 9.00	Cc1c(F)cccc1-c1ccc2nc(N)c(C(=O)C3CC3)n2c1 [Example 14]
6.30 to 7.00	Cc1scnc1-c1ccc2nc(N)c(C(=O)[C@@H]3C[C@@H]3F)n2c1 [Example 28, (2-amino-6-(5-methylthiazol-4-yl)imidazo[1,2-a]pyridin-3-yl)((1S,2S)-2-fluorocyclopropyl)methanone]
7.00 to 9.00	Nc1nc2ccc(-c3cnc4[nH]ccc4c3)cn2c1C(=O)c1ccncn1 [Example 78]
6.30 to 7.00	Nc1nc2ccc(-c3c[nH]c4ccc(Cl)cc34)cn2c1C(=O)[C@@H]1C[C@@H]1F [Example 111]
6.30 to 7.00	CC(=O)c1c(N)nc2ccc(-c3cccc(F)c3C)cn12 [Example 6, 1-(2-amino-6-(3-fluoro-2-methylphenyl)imidazo[1,2-a]pyridin-3-yl)ethan-1-one]
7.00 to 9.00	Cc1cc(-c2ccc3nc(N)c(C(=O)[C@@H]4C[C@@H]4F)n3c2)c(F)cc1N [Example 134]
6.30 to 7.00	Cc1c(F)cccc1-c1ccc2nc(N)c(C(=O)c3cnn(C)c3)n2c1 [Example 21]
6.30 to 7.00	Cc1c(F)c(N(C)C)c2[nH]ncc2c1-c1ccc2nc(N)c(C(=O)[C@@H]3C[C@@H]3F)n2c1 [Example 61]
6.30 to 7.00	Cc1ccc(C(F)(F)F)cc1-c1ccc2nc(N)c(C(=O)[C@@H]3C[C@@H]3F)n2c1 [Example 45]
6.30 to 7.00	Cc1ccsc1-c1ccc2nc(N)c(C(=O)[C@@H]3C[C@@H]3F)n2c1 [Example 29]
6.30 to 7.00	Nc1nc2ccc(-c3ccccc3OCCF)cn2c1C(=O)[C@@H]1C[C@@H]1F [Example 119]
6.30 to 7.00	Cc1c(F)cccc1-c1ccc2nc(N)c(C(=O)[C@@H]3CC3(F)F)n2c1 [Example 47]
6.30 to 7.00	Cc1cc(F)ccc1-c1ccc2nc(N)c(C(=O)[C@@H]3C[C@@H]3F)n2c1 [Example 7]

Structure (SMILES)	pIC50
Cc1c(F)cccc1-c1ccc2nc(N)c(C(=O)C3CCN3)n2c1 (stereo not shown) [Example 48]	6.30 to 7.00
